Reference: BindingDB's records for doi:10.1021/cb400452z (2013)

What was measured:
[1] = biological target: T1, Serine/threonine-protein kinase PKH2 [1-944] (Candida albicans (strain SC5314 / ATCC MYA-2876), UniProt Q5A3P6); test: AlphaScreen Assay; settings: pH 7.4
T1 construct: 1-944
T1 sequence (Q5A3P6 whole entry): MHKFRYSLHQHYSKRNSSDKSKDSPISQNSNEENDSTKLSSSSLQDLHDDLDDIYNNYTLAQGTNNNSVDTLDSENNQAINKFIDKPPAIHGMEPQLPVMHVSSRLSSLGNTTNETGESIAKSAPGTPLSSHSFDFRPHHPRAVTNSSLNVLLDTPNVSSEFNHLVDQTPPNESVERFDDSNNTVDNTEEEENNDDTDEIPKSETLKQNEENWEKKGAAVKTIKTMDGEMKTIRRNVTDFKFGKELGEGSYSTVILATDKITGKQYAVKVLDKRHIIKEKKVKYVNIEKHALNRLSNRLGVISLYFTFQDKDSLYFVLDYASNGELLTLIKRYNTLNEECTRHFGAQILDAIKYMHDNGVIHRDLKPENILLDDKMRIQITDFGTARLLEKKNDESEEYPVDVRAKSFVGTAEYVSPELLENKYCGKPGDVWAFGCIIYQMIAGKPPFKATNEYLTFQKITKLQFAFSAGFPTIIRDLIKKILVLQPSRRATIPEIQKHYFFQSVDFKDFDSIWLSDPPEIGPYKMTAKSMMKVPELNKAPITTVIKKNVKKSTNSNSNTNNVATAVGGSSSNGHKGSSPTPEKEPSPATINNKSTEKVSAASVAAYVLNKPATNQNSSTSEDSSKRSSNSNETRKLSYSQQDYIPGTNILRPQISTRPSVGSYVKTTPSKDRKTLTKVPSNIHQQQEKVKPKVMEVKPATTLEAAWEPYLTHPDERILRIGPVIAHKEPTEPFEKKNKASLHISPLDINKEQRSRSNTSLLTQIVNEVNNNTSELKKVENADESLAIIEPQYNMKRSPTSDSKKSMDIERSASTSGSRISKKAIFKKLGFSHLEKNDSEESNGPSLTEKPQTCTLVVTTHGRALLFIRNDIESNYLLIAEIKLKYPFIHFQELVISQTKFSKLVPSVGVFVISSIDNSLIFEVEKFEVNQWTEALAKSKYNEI
Procedure: (§1) The AlphaScreen Assay (Perkin Elmer) was performed according to the manufacturer's protocol in 384-well microtiter plates. Incubations were performed in white 384-well microtiter plates containing 20uL of a reaction mix (50mM Tris-HCl pH 7.4, 100mM NaCl, 1mM dithiotreitol, 0.01% (v/v) Tween-20, 0.1% (w/v) BSA, 1mM DMSO, 100nM His-CaPkh2 or 100nM His-PDK1, 50nM Biotin-PIFtide, and the indicated concentrations of unlabeled PIF-tide or small compounds) and 5uL of beads. 5uL of beads solution containing nickel chelate-coated acceptor beads and streptavidin-coated donor beads (20ug/mL final concentrations) was added to the reaction mix. The reaction mix and the beads were incubated in the dark for 45 min at RT and the emission of light from the acceptor beads was measured in the EnVision reader (Perkin Elmer) and analyzed using the GraphPad Prism software.

[2] = biological target: T2, 3-phosphoinositide-dependent protein kinase 1 (Homo sapiens, UniProt O15530); test: AlphaScreen Assay; settings: pH 7.4; room temperature
T2 sequence (O15530 whole entry): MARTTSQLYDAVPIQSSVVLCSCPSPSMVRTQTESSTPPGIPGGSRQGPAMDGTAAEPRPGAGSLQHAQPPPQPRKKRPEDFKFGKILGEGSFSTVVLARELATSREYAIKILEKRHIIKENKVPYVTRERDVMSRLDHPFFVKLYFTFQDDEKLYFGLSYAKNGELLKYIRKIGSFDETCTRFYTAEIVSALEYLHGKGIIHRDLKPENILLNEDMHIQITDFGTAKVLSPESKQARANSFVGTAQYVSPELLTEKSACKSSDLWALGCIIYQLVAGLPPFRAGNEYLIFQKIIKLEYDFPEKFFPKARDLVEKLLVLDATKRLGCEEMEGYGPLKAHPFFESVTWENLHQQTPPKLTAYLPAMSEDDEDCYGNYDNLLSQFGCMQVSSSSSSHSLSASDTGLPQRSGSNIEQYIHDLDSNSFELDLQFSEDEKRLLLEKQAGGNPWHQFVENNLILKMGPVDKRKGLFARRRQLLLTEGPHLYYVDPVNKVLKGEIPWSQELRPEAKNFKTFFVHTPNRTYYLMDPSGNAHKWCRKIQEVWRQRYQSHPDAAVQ
Procedure: as §1

[3] = biological target: T2, 3-phosphoinositide-dependent protein kinase 1; test: Protein Kinase Activity Assay; settings: pH 7.4; 0 °C
Procedure: (§2) A 20ul mix containing 50mM Tris pH 7.5, 0.05mg/ml BSA, 0.1% β-mercaptoethanol, 10mM MgCl2, 100μM [γ-P32]ATP (5-50cpm/pmol), 0.003% Brij, 150-500ng PDK1 or CaPkh2, and T308tide (from 0.1 to 1mM) was pre-incubated at room temperature (22¿C) for 15 minutes. The kinase reaction was initiated by the addition of the ATP-Mg mixture, followed by the addition of 5μl phosphoric acid (final concentration 0.01%) to stop the reaction. The PDK1 activity assay was performed in a 96 well format and 4μl aliquots spotted on p81 phosphocellulose papers (Whatmann) using ep motion 5070 (Eppendorf), washed in 0.01% phosphoric acid, dried, and then exposed and analyzed using PhophoImager technology (FLA-9000 Starion, Fujifilm). The specific activity of CaPkh2 and PDK1 was estimated using 100μM T308tide.

[4] = biological target: T1, Serine/threonine-protein kinase PKH2 [1-944]; test: Protein Kinase Activity Assay; settings: pH 7.4; 0 °C
Procedure: as §2

SMILES | EC50 ([1]; room temperature) | EC50 [2] | IC50 [3] | IC50 [4] | EC50 [1]
O=C(O)CSC(CC(=O)c1ccc(Cl)cc1)c1ccccc1 (stereo not drawn) | 85 µM | – | – | – | –
O=C(C[C@@H](c1ccccc1)C(C(=O)O)C(=O)O)c1ccc(C(F)(F)F)cc1 | 60 µM | 39 µM | – | – | –
O=C(O)CSC(CC(=O)c1ccc(Cl)cc1)c1ccccc1Sc1ccc(Cl)cc1 (stereo not drawn) [PS77] | – | – | 38 µM | 17 µM | 44 µM
O=C(CC(c1ccccc1)C(C(=O)O)C(=O)O)c1ccc(Cl)cc1 (stereo not drawn) [PS182] | 66 µM | 26 µM | – | – | –
